Data set [1] deals with CCR2 (Homo sapiens (Human), UniProt P41597). The data set can be described thus: MCP-1 Receptor Binding Assay in THP-1 Cells. The settings on record: stated as 'believed to have', approximate ('about'). As for the experimental part:
Human monocytic cell line THP-1 cells were obtained from American Type Culture Collection (Manassas, Va., USA). […] The cell density was maintained […].
1 μM cold MCP-1 was used for nonspecific binding.

The nature of data set [2]: Moisture sorption/desorption analysis. To be noted: for total hygroscopic weight increase (uptake): up to 90% RH. The class given is physicochemical. The method, then: The crystalline phosphate, sulfate and maleate salts of the compound of formula (I-S) were additional tested in DSC, TGA and moisture sorption/desorption. […] The moisture sorption analysis was performed using Hiden Isochema system Model IGAsorp. The sample (˜5 mg) was run in a stainless-steel mesh crucible. […] The moisture profile consisted of 2 cycles of vapor adsorption/desorption.

Data set [3] can be described thus: Solution solubility. The settings on record: thermodynamic from solid.
The subject of data set [4] is high-fat diet induced obese mice. Description: High-Fat Diet Induced Obesity and Insulin Resistance in Mice.
The test system of data set [5] is hCCR2KI mice. Description: animal or person. The class given is in vivo, mouse.

Values joined by “and” are separate entries in the source; they are usually repeats but may differ in a detail not shown here. Equal values may be shown once. Where a name gives a salt, the structure may show the parent alone.

A word on the IC50: it is the concentration that inhibits the measured activity by half. A word on the solubility: it is the concentration that dissolves in the medium under given conditions. Low readings indicate little dissolved substance, high ones much dissolved substance. The EC50 is the concentration at which the effect is half-maximal.

Chain of CCR2 (P41597 whole entry): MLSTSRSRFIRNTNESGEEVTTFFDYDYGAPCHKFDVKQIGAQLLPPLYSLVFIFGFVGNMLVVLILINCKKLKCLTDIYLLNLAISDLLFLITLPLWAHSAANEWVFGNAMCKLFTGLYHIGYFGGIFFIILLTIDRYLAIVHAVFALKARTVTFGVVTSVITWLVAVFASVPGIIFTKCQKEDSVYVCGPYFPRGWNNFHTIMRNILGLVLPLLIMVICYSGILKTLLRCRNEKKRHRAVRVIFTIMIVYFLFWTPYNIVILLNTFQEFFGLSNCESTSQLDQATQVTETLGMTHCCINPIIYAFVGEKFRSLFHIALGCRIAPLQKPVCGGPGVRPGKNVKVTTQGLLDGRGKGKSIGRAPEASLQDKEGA

Turning to `CO[C@@H]1COCC[C@@H]1N[C@@H]1C[C@H]2OCC[C@@]2(C(=O)N2CCN(c3ccnc(C(F)(F)F)n3)CC2)C1` [Example 28, ((3aS,5S,6aR)-5-(((3S,4S)-3-methoxytetrahydro-2H-pyran-4-yl)amino)hexahydro-2H-cyclopenta[b]furan-3a-yl)(4-(2-(trifluoromethyl)pyrimidin-4-yl)piperazin-1-yl)methanone], in data set [1], the IC50 was greater than 200 nM.
For the molecule `CO[C@@H]1COCC[C@@H]1N[C@@H]1C[C@H]2OCC[C@@]2(C(=O)N2CCc3ncc(C(F)(F)F)cc3C2)C1` [sulfate salt, ((3aS,5S,6aR)-5-(((3S,4S)-3-methoxytetrahydro-2H-pyran-4-yl)amino)hexahydro-2H-cyclopenta[b]furan-3a-yl)(3-(trifluoromethyl)-7,8-dihydro-1,6-naphthyridin-6(5H)-yl)methanone], the hygroscopic weight increase in data set [2] (up to 60% RH) is recorded as 1.6%. Besides, the “total hygroscopic weight increase (uptake)” value in data set [2] came out at 26.5%.
For `CO[C@@H]1COCC[C@@H]1N[C@@H]1C[C@H]2OCC[C@@]2(C(=O)N2CCc3ncc(C(F)(F)F)cc3C2)C1` [phosphate salt, ((3aS,5S,6aR)-5-(((3S,4S)-3-methoxytetrahydro-2H-pyran-4-yl)amino)hexahydro-2H-cyclopenta[b]furan-3a-yl)(3-(trifluoromethyl)-7,8-dihydro-1,6-naphthyridin-6(5H)-yl)methanone], in that order: 3.3% and 69.4%.
Turning to `COC1COCCC1N[C@@H]1C[C@H]2OC(CC(C)C)C[C@@]2(C(=O)N2CCc3ncc(C(F)(F)F)cc3C2)C1` (stereo partly drawn) [Example 14, ((3aS,5S,6aR)-2-isobutyl-5-((3-methoxytetrahydro-2H-pyran-4-yl)amino)hexahydro-2H-cyclopenta[b]furan-3a-yl)(3-(trifluoromethyl)-7,8-dihydro-1,6-naphthyridin-6(5H)-yl)methanone], in data set [1], the IC50 lay within 50 to 100 nM.
The same measure, in the same setting: the figure for `O=C(N1COc2ccc(C(F)(F)F)cc2C1)[C@@]12CCO[C@@H]1C[C@@H](N1CCC(c3ccccc3)CC1)C2` [Example 38, ((3aS,5S,6aR)-5-(4-phenylpiperidin-1-yl)hexahydro-2H-cyclopenta[b]furan-3a-yl)(6-(trifluoromethyl)-2H-benzo[e][1,3]oxazin-3(4H)-yl)methanone] is 100 to 200 nM.
In data set [1], `CO[C@@H]1COCC[C@@H]1N[C@@H]1C[C@H]2OCC[C@@]2(C(=O)N2CCN(c3cccc(C(F)(F)F)n3)CC2)C1` [Example 24, ((3 aS,5S,6aR)-5-(((3S,4S)-3-methoxytetrahydro-2H-pyran-4-yl)amino)hexahydro-2H-cyclopenta[b]furan-3a-yl)(4-(6-(trifluoromethyl)pyridin-2-yl)piperazin-1-yl)methanone] displayed an IC50 greater than 200 nM.
Molecule `COC1COCCC1N[C@@H]1C[C@H]2OC(c3ccnn3C)C[C@@]2(C(=O)N2CCc3ncc(C(F)(F)F)cc3C2)C1` (stereo partly drawn) [Example 17, ((3aS,5S,6aR)-5-((3-methoxytetrahydro-2H-pyran-4-yl)amino)-2-(1-methyl-1H-pyrazol-5-yl)hexahydro-2H-cyclopenta[b]furan-3a-yl)(3-(trifluoromethyl)-7,8-dihydro-1,6-naphthyridin-6(5H)-yl)methanone] displayed a half-maximal inhibitory concentration (IC50) in data set [1] of 100 to 200 nM.
Molecule `COC1COCCC1N[C@@H]1C[C@H]2OC(c3nccn3C)C[C@@]2(C(=O)N2CCc3ncc(C(F)(F)F)cc3C2)C1` (stereo partly drawn) [Example 18, ((3 aS,5S,6aR)-5-((3-methoxytetrahydro-2H-pyran-4-yl)amino)-2-(1-methyl-1H-imidazol-2-yl)hexahydro-2H-cyclopenta[b]furan-3a-yl)(3-(trifluoromethyl)-7,8-dihydro-1,6-naphthyridin-6(5H)-yl)methanone] gave an IC50 in data set [1] greater than 200 nM.
Molecule `COCCN([C@@H]1C[C@H]2OCC[C@@]2(C(=O)N2CCc3ncc(C(F)(F)F)cc3C2)C1)[C@H]1CCOC[C@H]1OC` [Example 41, ((3aS,5S,6aR)-5-((2-methoxyethyl)((3S,4S)-3-methoxytetrahydro-2H-pyran-4-yl)amino)hexahydro-2H-cyclopenta[b]furan-3a-yl)(3-(trifluoromethyl)-7,8-dihydro-1,6-naphthyridin-6(5H)-yl)methanone] registered an IC50 in data set [1] greater than 200 nM.
For the molecule `CO[C@@H]1COCC[C@@H]1N[C@@H]1C[C@H]2OCC[C@@]2(C(=O)N2CCc3ncc(C(F)(F)F)cc3C2)C1` [maleate salt, ((3aS,5S,6aR)-5-(((3S,4S)-3-methoxytetrahydro-2H-pyran-4-yl)amino)hexahydro-2H-cyclopenta[b]furan-3a-yl)(3-(trifluoromethyl)-7,8-dihydro-1,6-naphthyridin-6(5H)-yl)methanone], in data set [2] (up to 70% RH), the hygroscopic weight increase is 18.3%. In data set [2], the “total hygroscopic weight increase (uptake)” value is given as 79.9%.
`COC1COCCC1N[C@@H]1C[C@H]2OC(C3CCCCC3)C[C@@]2(C(=O)N2CCc3ncc(C(F)(F)F)cc3C2)C1` (stereo partly drawn) [Example 15, ((3aS,5S,6aR)-2-cyclohexyl-5-((3-methoxytetrahydro-2H-pyran-4-yl)amino)hexahydro-2H-cyclopenta[b]furan-3a-yl)(3-(trifluoromethyl)-7,8-dihydro-1,6-naphthyridin-6(5H)-yl)methanone] came in with an IC50 in data set [1] of less than 50 nM.
Take `CO[C@@H]1COCC[C@@H]1N[C@@H]1C[C@H]2OCC[C@@]2(C(=O)N2CCc3ncc(C(F)(F)F)cc3C2)C1.O=C(O)CCC(=O)O` [((3aS,5S,6aR)-5-(((3S,4S)-3-methoxytetrahydro-2H-pyran-4-yl)amino)hexahydro-2H-cyclopenta[b]furan-3a-yl)(3-(trifluoromethyl)-7,8-dihydro-1,6-naphthyridin-6(5H)-yl)methanone]: the solubility is greater than 100 mg/mL in data set [3] (0.1N NaOH, aqueous buffer); greater than 100 mg/mL in data set [3] (0.5% methocel, aqueous with cosolvent or surfactant or cyclodextrin); greater than 100 mg/mL in data set [3] (20% HpbCD, aqueous with cosolvent or surfactant or cyclodextrin); greater than 100 mg/mL in data set [3] (borate buffer, pH 8, aqueous buffer); greater than 100 mg/mL in data set [3] (borate buffer, pH 10, aqueous buffer); greater than 100 mg/mL in data set [3] (citrate buffer, pH 2, aqueous buffer). Moreover, the solubility in data set [3] (citrate buffer, pH 4, aqueous buffer) was greater than 100 mg/mL; in data set [3] (citrate buffer, pH 6, aqueous buffer), greater than 100 mg/mL; in data set [3] (simulated gastric fluid), greater than 100 mg/mL; in data set [3] (simulated intestinal fluid, fassgf or other biorelevant), greater than 100 mg/mL; in data set [3] (water) it was greater than 50 mg/mL. Further, the “moisture retained at the end of the desorption phase” value in data set [2] (multiple sorption/desorption cycles, 25° C.) is given as “about 2.7%”. In addition, in data set [2] (up to 70% RH), the hygroscopic weight increase is recorded as 3.8%. The “total hygroscopic weight increase (uptake)” value in data set [2] was determined as 70%.
Consider `CN(C)C(=O)c1cccc(C2CCN([C@@H]3C[C@H]4OCC[C@@]4(C(=O)N4COc5ccc(C(F)(F)F)cc5C4)C3)CC2)c1` [Example 39, N,N-dimethyl-3-(1-((3aS,5S,6aR)-3a-(6-(trifluoromethyl)-3,4-dihydro-2H-benzo[e][1,3]oxazine-3-carbonyl)hexahydro-2H-cyclopenta[b]furan-5-yl)piperidin-4-yl)benzamide], for which the concentration for half-maximal inhibition (IC50) in data set [1] is less than 50 nM.
As for `CO[C@@H]1COCC[C@@H]1N[C@@H]1C[C@H]2OCC[C@@]2(C(=O)N2CCc3ncc(C(F)(F)F)cc3C2)C1.O=C(O)CCC(=O)O` [Example 30, ((3aS,5S,6aR)-5-((3S,4S)-3-methoxytetrahydro-2H-pyran-4-ylamino)hexahydro-2H-cyclopenta[b]furan-3a-yl)(3-(trifluoromethyl)-7,8-dihydro-1,6-naphthyridin-6(5H)-yl)methanone succinate], the “reduction of high fat-diet induced body weight” value in data set [4] (1 mg/kg p.o. bid, after 32-days treatment (p>0.05)) is 4.94%; in data set [4] (3 mg/kg p.o. bid, after 32-days treatment (p<0.01)) it was 10.94%; in data set [4] (10 mg/kg p.o. bid, after 32-days treatment (p<0.01)), 15.7%. The EC50 in data set [5] (Mus musculus, 0.5 h, read-out: cmax EC50 in plasma) worked out at 97 nM. Also, the “inhibition of thioglycollate induced cellular infiltrate” value in data set [5] (mouse, in vivo, succinate) was 51% and 67% and 95%.
On to `COCCOCCOCCOCCCN([C@@H]1C[C@H]2OCC[C@@]2(C(=O)N2CCc3ncc(C(F)(F)F)cc3C2)C1)[C@H]1CCOC[C@H]1OC` [Example 42, ((3aS,5S,6aR)-5-(((3S,4S)-3-methoxytetrahydro-2H-pyran-4-yl)(2,5,8,11-tetraoxatetradecan-14-yl)amino)hexahydro-2H-cyclopenta[b]furan-3a-yl)(3-(trifluoromethyl)-7,8-dihydro-1,6-naphthyridin-6(5H)-yl)methanone], for which, in data set [1], the IC50 was greater than 200 nM.
In turn, `COc1cccc(C2CCN([C@@H]3C[C@H]4OCC[C@@]4(C(=O)N4CCc5ncc(C(F)(F)F)cc5C4)C3)CC2)c1` [Example 33, ((3aS,5S,6aR)-5-(4-(3-methoxyphenyl)piperidin-1-yl)hexahydro-2H-cyclopenta[b]furan-3a-yl)(3-(trifluoromethyl)-7,8-dihydro-1,6-naphthyridin-6(5H)-yl)methanone] returned an IC50 in data set [1] of less than 50 nM.

Source of the values: US8822460B2, “Fused cyclopentyl antagonists of CCR2” (Janssen Pharmaceutica, NV, priority 2012, dated 2014).
